Data on 18 molecules can be found in PubChem BioAssay (NCI).

The structures appear in SMILES notation. Where “and” joins values, the source holds several entries; their conditions need not be identical. Identical values can stand only once.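 Method: 48-hour compound exposure of cells in 96-well plates, five concentrations, linear interpolation of endpoints. GI50: concentration for 50% inhibition of growth. TGI is the concentration that stops growth completely.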

Some test systems named below: ACHN renal; MDA-MB-435; NCI-H460 lung; SF-539 CNS; SW-620 colon; UACC-257 melanoma; DMS 114 small cell lung; DMS 273 small cell lung; LXFL 529 NSCLC; SNB-78 CNS; M19-MEL melanoma.
Common to all, as to test: inhibition of tumour cell growth, NCI panel, 48 h

For `CC(=O)CCCCn1c(=O)c2c(nc(Br)n2C)n(C)c1=O`, the TGI in the assay on ACHN renal, in the assay on MDA-MB-435, with NCI-H460 lung, with SF-539 CNS, with SW-620 colon and in the assay with UACC-257 melanoma was more than 100 µM in each case.
For the molecule `Cc1ccc(C(=O)CC2(O)C(=O)Nc3c(C)cc(Cl)cc32)cc1` (stereo unspecified), the TGI in the assay on ACHN renal, with DMS 114 small cell lung, in the assay on DMS 273 small cell lung, with LXFL 529 NSCLC, in the assay on NCI-H460 lung and in the assay on SNB-78 CNS was more than 100 µM throughout. Moreover, the TGI in the assay on SW-620 colon and with UACC-257 melanoma was more than 100 µM in each case.
With `CCOC1OC(CO)C(O)CC1n1ccc(=O)[nH]c1=O` (stereo unspecified), the TGI in the assay on ACHN renal, in the assay with MDA-MB-435, with NCI-H460 lung, in the assay with SF-539 CNS, in the assay with SW-620 colon and in the assay with UACC-257 melanoma was more than 100 µM in each case.
Turning to `O[C@]12C=C(c3nccc4c3[nH]c3ccccc34)[C@@H]3CCN(CCCC/C=C\CC1)C[C@@]31CC3/C=C\CCCCN3[C@H]12` (stereo partly specified), the TGI in the assay with ACHN renal was determined as 1.05 µM; in the assay with MDA-MB-435, 1.53 µM; in the assay with NCI-H460 lung it was 2.02 µM; in the assay on SF-539 CNS, 4.6 µM; with SW-620 colon it was 4.65 µM; with UACC-257 melanoma it was 3.39 µM.
As for `O=C1N/C(=N\N=C\c2ccccc2)C(c2ccccc2)O1` (stereo unspecified), the TGI in the assay on ACHN renal, with MDA-MB-435, in the assay on NCI-H460 lung, with SF-539 CNS, with SW-620 colon and in the assay with UACC-257 melanoma was more than 100 µM throughout.
Regarding `COc1ccc(C(O)/C(=N/N)c2nc3ccc(Cl)cc3[nH]c2=O)cc1` (stereo unspecified), the TGI with ACHN renal, in the assay on MDA-MB-435, with NCI-H460 lung, in the assay with SF-539 CNS, with SW-620 colon and in the assay with UACC-257 melanoma was more than 100 µM throughout.
Consider `FC(F)(F)c1ccc(C2ON=C(c3ccccc3)N2C23CC4CC(CC(C4)C2)C3)cc1` (stereo unspecified), for which the TGI in the assay with ACHN renal, with MDA-MB-435, with NCI-H460 lung, in the assay with SF-539 CNS, in the assay on SW-620 colon and in the assay with UACC-257 melanoma was more than 10 µM in each case.
With `COC1(CC[C@@H](C)COC2OC(CO)C(O)C(O)C2O)O[C@H]2C[C@H]3[C@@H]4CC=C5C[C@@H](OC6OC(CO)C(OC7OC(C)C(O)C(O)C7O)C(O)C6OC6OC(C)C(O)C(O)C6O)CC[C@]5(C)[C@H]4CC[C@]3(C)[C@H]2[C@@H]1C` (stereo partly specified), the GI50 in the assay with ACHN renal is 6.24 µM; in the assay with NCI-H460 lung, 1.62 µM; with SF-539 CNS, 1.22 µM; in the assay with SW-620 colon it was 0.795 µM; in the assay on UACC-257 melanoma it was 2.56 µM. The TGI came out at 13.9 µM in the assay on ACHN renal; 4.18 µM in the assay with MDA-MB-435; 5.43 µM in the assay on NCI-H460 lung; 2.86 µM in the assay with SF-539 CNS; 2.21 µM in the assay on SW-620 colon; 8.38 µM in the assay on UACC-257 melanoma.
Consider `COc1cc2ccc3c4ccccc4cnc3c2cc1OC`, for which the TGI in the assay with ACHN renal, in the assay on LXFL 529 NSCLC, with M19-MEL melanoma, with NCI-H460 lung, in the assay with SF-539 CNS and with SNB-78 CNS was more than 100 µM in each case. In addition, the TGI in the assay on SW-620 colon and with UACC-257 melanoma was more than 100 µM each time.
For `COc1ccc(Nc2nc3ccccc3n3cccc23)cc1OC`, the TGI came to 69.7 µM in the assay with ACHN renal; 26.7 µM in the assay on MDA-MB-435; 27.5 µM in the assay on NCI-H460 lung; 35 µM in the assay on SF-539 CNS; 36.6 µM in the assay on SW-620 colon; 29.4 µM in the assay with UACC-257 melanoma.
In the case of `COc1ccc(C2c3cc4c(cc3OC(NNc3ccccc3)C2C)OCO4)cc1` (stereo unspecified), the TGI in the assay on ACHN renal was 49.5 µM; in the assay on MDA-MB-435 it was more than 100 µM; with NCI-H460 lung it was more than 100 µM; with SF-539 CNS it was 6.55 µM; in the assay with SW-620 colon, more than 100 µM; with UACC-257 melanoma it was 86.3 µM.
As for `COC(=O)C1CC2C=CC=CC(=O)C2(C)C1` (stereo unspecified), the TGI with ACHN renal, in the assay with DMS 114 small cell lung, in the assay with LXFL 529 NSCLC, with M19-MEL melanoma, in the assay on NCI-H460 lung and with SF-539 CNS was more than 100 µM throughout. Further, the TGI with SNB-78 CNS was more than 100 µM; with SW-620 colon, 90.1 µM; in the assay on UACC-257 melanoma, more than 100 µM.
Take `CCc1n[nH]c(=O)n1CCCCCCCCn1c(CC)n[nH]c1=O`: the TGI with ACHN renal, in the assay on MDA-MB-435, with NCI-H460 lung, with SF-539 CNS, in the assay on SW-620 colon and in the assay with UACC-257 melanoma was more than 100 µM in each case.
As to `CN(C)c1ccc(/C=C/C(=O)c2ccc(O)cc2)cc1`, the TGI was 61.3 µM in the assay with ACHN renal; 3.22 µM with MDA-MB-435; 22.8 µM in the assay on NCI-H460 lung; 13.5 µM in the assay on SF-539 CNS; more than 100 µM in the assay on SW-620 colon; more than 92.4 µM with UACC-257 melanoma.
As to `C=C1CC(C)(COc2ccc3c(C)c(Cl)c(=O)oc3c2)OC1=O` (stereo unspecified), the TGI with ACHN renal came to 11.4 µM; in the assay with MDA-MB-435, 11.7 µM; with NCI-H460 lung, 21.2 µM; with SF-539 CNS, 15.6 µM; in the assay with SW-620 colon, 3.15 µM; with UACC-257 melanoma, 3.48 µM.
On to `CC1=CC(=O)CC2(C)CCC(C(C)CC(=O)CC(C)C)CC12OO` (stereo unspecified), for which the TGI in the assay with ACHN renal is 30.8 µM and 31.4 µM; with MDA-MB-435, 31.3 µM and 34.2 µM; in the assay on NCI-H460 lung, 25.1 µM and > 100 µM; in the assay on SF-539 CNS, 28.9 µM and 30 µM; in the assay on SW-620 colon it was 31.9 µM and 35.7 µM; in the assay on UACC-257 melanoma, 31.5 µM and 33 µM. The GI50 in the assay on NCI-H460 lung was 11.6 µM and 31 µM.
As for `Nc1nc(Nc2ccc(Cl)c(Cl)c2)nc2nc[nH]c12`, the TGI with ACHN renal came out at 25.2 µM; in the assay with MDA-MB-435 it was 32 µM; in the assay with NCI-H460 lung, 34 µM; with SF-539 CNS, 26.7 µM; with SW-620 colon, 41.6 µM; in the assay on UACC-257 melanoma, 32.7 µM.
In the case of `COc1ccc(-n2c(CCC(=O)O)nc3c2C(=O)c2ccccc2C3=O)cc1`, the TGI in the assay on ACHN renal, in the assay on MDA-MB-435, in the assay with NCI-H460 lung, in the assay with SF-539 CNS, in the assay on SW-620 colon and in the assay on UACC-257 melanoma was more than 100 µM throughout.
